From BindingDB's records for doi:10.1016/j.bmcl.2004.09.023 (Dupont Pharmaceuticals, 2004)

Columns and labels:
[1] = molecular target: Cyclin-dependent kinase 4/G1/S-specific cyclin-D1 (Homo sapiens, UniProt P11802); assay: Kinase Inhibition Assay
Protocol: (§1) The enzyme was assayed with substrate GST-Rb in the presence of 50 mM ATP/[gamma-32P] ATP, and capturing the 32-P labeled reaction products on GSH-Sepharose beads. […] Use of 32P-labeled ATP allows this transfer to be monitored by scintillation counting.

[2] = molecular target: Cyclin-dependent kinase 2/G1/S-specific cyclin-E1 (Homo sapiens, UniProt P24941); assay: Kinase Inhibition Assay
Protocol: as §1

Chain of Cyclin-dependent kinase 4/G1/S-specific cyclin-D1 (P11802 whole entry): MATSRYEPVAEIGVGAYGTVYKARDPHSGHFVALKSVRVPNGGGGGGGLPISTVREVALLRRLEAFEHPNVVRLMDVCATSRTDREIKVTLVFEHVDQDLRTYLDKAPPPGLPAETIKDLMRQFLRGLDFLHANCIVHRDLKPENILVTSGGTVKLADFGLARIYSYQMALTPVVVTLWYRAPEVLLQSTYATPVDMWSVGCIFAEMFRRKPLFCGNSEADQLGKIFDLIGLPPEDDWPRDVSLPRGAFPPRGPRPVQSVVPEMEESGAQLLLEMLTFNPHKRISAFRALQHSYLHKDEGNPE
Chain of Cyclin-dependent kinase 4/G1/S-specific cyclin-D1 (P24385 whole entry, further chain): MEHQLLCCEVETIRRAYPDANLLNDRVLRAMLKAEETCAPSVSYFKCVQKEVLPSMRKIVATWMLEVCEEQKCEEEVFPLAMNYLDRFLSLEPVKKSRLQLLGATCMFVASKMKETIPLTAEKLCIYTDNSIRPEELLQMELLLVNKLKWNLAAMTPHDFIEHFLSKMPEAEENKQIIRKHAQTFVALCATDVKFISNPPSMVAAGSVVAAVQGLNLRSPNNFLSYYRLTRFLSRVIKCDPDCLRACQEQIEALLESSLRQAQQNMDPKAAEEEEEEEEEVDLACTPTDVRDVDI

| SMILES | IC50 [1] [µM] | IC50 [2] [µM] | IC50 ([2]; pH 7.6, 22 °C) [µM] |
| --- | --- | --- | --- |
| COc1ccc(-c2[nH]nc3c2C(=O)c2c(NC(=O)NNC(=O)c4ccc(O)cc4O)cccc2-3)cc1 [2,4-dihydroxy-N-({[3-(4-methoxyphenyl)-4-oxo-2H,4H-indeno[1,2-c]pyrazol-5-yl]carbamoyl}amino)benzamide] | 0.012 | 0.016 |  |
| COc1ccc(-c2[nH]nc3c2C(=O)c2c(NC(=O)NNC(=O)c4cc(Cl)ccc4Cl)cccc2-3)cc1 [2,5-dichloro-N-({[3-(4-methoxyphenyl)-4-oxo-2H,4H-indeno[1,2-c]pyrazol-5-yl]carbamoyl}amino)benzamide] | 0.028 |  | 0.036 |
| COc1ccc(-c2[nH]nc3c2C(=O)c2c(NC(=O)NNC(=O)c4ccccc4OC)cccc2-3)cc1 [2-methoxy-N-({[3-(4-methoxyphenyl)-4-oxo-2H,4H-indeno[1,2-c]pyrazol-5-yl]carbamoyl}amino)benzamide] |  |  | 0.014 |
| COc1ccc(-c2[nH]nc3c2C(=O)c2c(NC(=O)NNC(=O)c4cc(N)cc(N)c4)cccc2-3)cc1 [3,5-diamino-N-({[3-(4-methoxyphenyl)-4-oxo-2H,4H-indeno[1,2-c]pyrazol-5-yl]carbamoyl}amino)benzamide] | 0.016 |  | 0.039 |
| COc1ccc(-c2[nH]nc3c2C(=O)c2c(NC(=O)NNC(=O)c4cc(OC)cc(OC)c4)cccc2-3)cc1 [3,5-dimethoxy-N-({[3-(4-methoxyphenyl)-4-oxo-2H,4H-indeno[1,2-c]pyrazol-5-yl]carbamoyl}amino)benzamide] | 0.024 |  |  |
| COc1ccc(-c2[nH]nc3c2C(=O)c2c(NC(=O)NNC(=O)CCc4ccc(O)cc4)cccc2-3)cc1 [3-(4-hydroxyphenyl)-N-({[3-(4-methoxyphenyl)-4-oxo-2H,4H-indeno[1,2-c]pyrazol-5-yl]carbamoyl}amino)propanamide] |  |  | 0.013 |
| COc1ccc(-c2[nH]nc3c2C(=O)c2c(NC(=O)NNC(=O)Nc4ccccc4)cccc2-3)cc1 [3-[3-(4-methoxyphenyl)-4-oxo-2H,4H-indeno[1,2-c]pyrazol-5-yl]-1-[(phenylcarbamoyl)amino]urea] |  |  | 0.019 |
| COc1ccc(-c2[nH]nc3c2C(=O)c2c(NC(=O)NNC(=O)c4ccc(O)c(N)c4)cccc2-3)cc1 [3-amino-4-hydroxy-N-({[3-(4-methoxyphenyl)-4-oxo-2H,4H-indeno[1,2-c]pyrazol-5-yl]carbamoyl}amino)benzamide] |  |  | 0.024 |
| COc1ccc(-c2[nH]nc3c2C(=O)c2c(NC(=O)NNC(=O)c4cccc(N)c4)cccc2-3)cc1 [3-amino-N-({[3-(4-methoxyphenyl)-4-oxo-2H,4H-indeno[1,2-c]pyrazol-5-yl]carbamoyl}amino)benzamide] |  | 0.013 |  |
| COc1ccc(C(=O)NNC(=O)Nc2cccc3c2C(=O)c2c(-c4ccc(OC)cc4)n[nH]c2-3)cc1 [4-methoxy-N-({[3-(4-methoxyphenyl)-4-oxo-2H,4H-indeno[1,2-c]pyrazol-5-yl]carbamoyl}amino)benzamide] | 0.011 |  | 0.015 |
| COc1ccc(-c2[nH]nc3c2C(=O)c2c(NC(=O)NNC(=O)C(C)C)cccc2-3)cc1 [N-({[3-(4-methoxyphenyl)-4-oxo-2H,4H-indeno[1,2-c]pyrazol-5-yl]carbamoyl}amino)-2-methylpropanamide] |  |  | 0.019 |
| COc1ccc(-c2[nH]nc3c2C(=O)c2c(NC(=O)NNC(=O)Cc4ccccc4)cccc2-3)cc1 [N-({[3-(4-methoxyphenyl)-4-oxo-2H,4H-indeno[1,2-c]pyrazol-5-yl]carbamoyl}amino)-2-phenylacetamide] | 0.027 | 0.033 |  |
| COc1ccc(-c2[nH]nc3c2C(=O)c2c(NC(=O)NNC(=O)c4cccc(C)c4)cccc2-3)cc1 [N-({[3-(4-methoxyphenyl)-4-oxo-2H,4H-indeno[1,2-c]pyrazol-5-yl]carbamoyl}amino)-3-methylbenzamide] |  |  | 0.013 |
| COc1ccc(-c2[nH]nc3c2C(=O)c2c(NC(=O)NNC(=O)c4cccc([N+](=O)[O-])c4)cccc2-3)cc1 [N-({[3-(4-methoxyphenyl)-4-oxo-2H,4H-indeno[1,2-c]pyrazol-5-yl]carbamoyl}amino)-3-nitrobenzamide] |  |  | 0.024 |
| COc1ccc(-c2[nH]nc3c2C(=O)c2c(NC(=O)NNC(=O)c4ccc(C)cc4)cccc2-3)cc1 [N-({[3-(4-methoxyphenyl)-4-oxo-2H,4H-indeno[1,2-c]pyrazol-5-yl]carbamoyl}amino)-4-methylbenzamide] |  |  | 0.024 |
| COc1ccc(-c2[nH]nc3c2C(=O)c2c(NC(=O)NNC(C)=O)cccc2-3)cc1 [N-({[3-(4-methoxyphenyl)-4-oxo-2H,4H-indeno[1,2-c]pyrazol-5-yl]carbamoyl}amino)acetamide] | 0.057 | 0.037 |  |
| COc1ccc(-c2[nH]nc3c2C(=O)c2c(NC(=O)NNC(=O)c4ccccc4)cccc2-3)cc1 [N-({[3-(4-methoxyphenyl)-4-oxo-2H,4H-indeno[1,2-c]pyrazol-5-yl]carbamoyl}amino)benzamide] |  | 0.012 |  |
| COc1ccc(-c2[nH]nc3c2C(=O)c2c(NC(=O)NNC(=O)C(N)=O)cccc2-3)cc1 [N-({[3-(4-methoxyphenyl)-4-oxo-2H,4H-indeno[1,2-c]pyrazol-5-yl]carbamoyl}amino)ethanediamide] |  | 0.097 |  |
| COc1ccc(-c2[nH]nc3c2C(=O)c2c(NC(=O)NNC(=O)c4cccc5ccccc45)cccc2-3)cc1 [N-({[3-(4-methoxyphenyl)-4-oxo-2H,4H-indeno[1,2-c]pyrazol-5-yl]carbamoyl}amino)naphthalene-1-carboxamide] |  |  | 0.053 |
| COc1ccc(-c2[nH]nc3c2C(=O)c2c(NC(=O)NNC(=O)c4ccc5ccccc5c4)cccc2-3)cc1 [N-({[3-(4-methoxyphenyl)-4-oxo-2H,4H-indeno[1,2-c]pyrazol-5-yl]carbamoyl}amino)naphthalene-2-carboxamide] | 0.013 | 0.035 |  |
| COc1ccc(-c2[nH]nc3c2C(=O)c2c(NC(=O)NNC(=O)c4cccnc4)cccc2-3)cc1 [N-({[3-(4-methoxyphenyl)-4-oxo-2H,4H-indeno[1,2-c]pyrazol-5-yl]carbamoyl}amino)pyridine-3-carboxamide] |  | 0.016 |  |
| COc1ccc(-c2[nH]nc3c2C(=O)c2c(NC(=O)NNC(=O)c4ccncc4)cccc2-3)cc1 [N-({[3-(4-methoxyphenyl)-4-oxo-2H,4H-indeno[1,2-c]pyrazol-5-yl]carbamoyl}amino)pyridine-4-carboxamide] |  | 0.012 |  |
| COC(=O)NNC(=O)Nc1cccc2c1C(=O)c1c-2n[nH]c1-c1ccc(OC)cc1 [methoxy-N-({[3-(4-methoxyphenyl)-4-oxo-2H,4H-indeno[1,2-c]pyrazol-5-yl]carbamoyl}amino)formamide] |  |  | 0.016 |
